Two molecules from US9238632B2, “3-cyanoanilinoalkylarylpiperazine derivative and use thereof in preparing drugs” (NHWA Pharma. Corporation, priority 2012, dated 2016) can be followed below.

For one data set, the target named is hSERT (Homo sapiens, UniProt P31645). Kind of data set: In vitro inhibition of serotonin reuptake ([3H]-5-HT) in cells stably expressing hSERT. The note with it: for inhibition at 10 µM: read-out: Inhibition rates of SERT reuptake [3H]-5-HT.
Data set [1] in a line: Acute toxicity study, single drench to mice (LD50, Bliss method). Conditions: mouse, in vivo, oral, hydrochloride. From the text: Bliss method is used for statistics.
A further data set has as its target T1, 5-HT2A receptor (Rattus norvegicus, UniProt P14842).
T1 construct: The supernatant is discarded and the precipitate (membrane receptor) is stocked; from tissue; host or cells: SD rat cerebral cortex membranes
In words: In vitro competitive binding test to 5-HT2A receptor ([3H]-Ketanserin, rat cerebral cortex membranes). Conditions: 10 μmol/L compound; hydrochloride salts; rat cerebral cortex membrane; unit (I %); read-out: 5-HT2A affinity [3H]-Ketanserin (inhibition rate of radioligand binding). How it is done:
(§1) Animals: clean grade SD rats, female and male, 250-300 g, purchased from Nanjing QingLongshan animal breeding center.
(§2) Radioligand: [^3H]-8-OH-DPAT, [^3H]-Ketanserin, purchased from PerkinElmer company; 5-HT and Methysergide, purchased from Sigma company.
Preparation of 5-HT2A buffer solution: Tris (6.05 g) is dissolved in ultrapure water (1000 ml). PH is adjusted to 7.4 with HCl. Tris-HCl buffer solution (0.05M) is used.
(§3) Preparation of radioligand: 50 μl mother liquor is diluted to 5 ml with anhydrous ethanol, and stocked for use.
(§4) Preparation of non-labeling ligand: appropriate amounts of 5-HT and Methysergide are dissolved in ultrapure water to give solutions with final concentrations of 2*10^−5M respectively.
(§5) Preparation of solutions of various test drugs: appropriate amount of each drug is first diluted to 1 ml with ultrapure water as stock solution. When needed, 10 μl of the stock solution is diluted to 1 ml to reach a level of 10^−5M.
(§6) Rats are decapitated to get the brains. The target tissues (left and right cerebral cortex) are separated on ice, added with 10-fold volume (V/W) of ice-cold buffer, and homogenized with tissue Homogenizer for several seconds 3 times to form tissue homogenate. The tissue homogenate is centrifuged with low temperature superb centrifuge (12000 r/min) 3 times, with each for 20 minutes. The supernatant is discarded and the precipitate (membrane receptor) is stocked in −80° C. ultralow temperature freezer.
(§7) The membrane receptor is added with certain volume of ice-cold buffer and homogenized to make membrane receptor solutions at certain concentrations.
(§8) Various reaction solutions are added in the following sequences and ratios:
(§9) Total binding tube: 100 μl membrane receptor+100 μl buffer+10 μl radioligand
(§10) Non-specific tube: 100 μl membrane receptor+100 μl non-labeling ligand+10 μl radioligand
(§11) Test compound tube: 100 μl membrane receptor+100 μl drug solution+10 μl radioligand
(§12) Above tubes are put in 37° C. water bath immediately after finishing adding radioligand into each of them and then incubated for 25 min. After 25 min, the tubes are put in ice water to quench the reaction. Each tube is poured into suction filtration device to filter, and the filter membrane is washed with 5-10 ml ice-cold buffer twice. The filter membrane is dried in 85° C. oven, and then put into test tubes, and added with certain amount of scintillation liquid to soak overnight. Radioactivity is determined using liquid scintillation counter.
(§13) Each compound is tested in duplicate, and the tests are carried out independently twice.

Data set [2] concerns Salmonella typhimurium histidine auxotrophic mutants TA97, TA98, TA100 and TA102. Kind of data set: Bacterial reverse mutation test (Ames test). The note with it: −S9 and +S9, all dosages. As to the method:
Strains: Salmonella typhimurium histidine auxotrophic mutants TA97, TA98, TA100 and TA102.
Results: the experiments include two parts of −S9 and +S9. In the test system without S9, TA98 5000 μg/dish has antibacterial activity, and in the test system with S9, TA97 5000 μg/dish has antibacterial activity. Other dosages have no antibacterial activity to any of the strains, and the growth background is excellent. […] Ames test is negative.
(The Ames test detects mutagens through reverse mutation in bacteria.)

Data set [3] deals with rat formalin induced pain model. Kind of data set: Rat formalin induced pain model (leg-raising times). The data set is classed as in vivo, SD rats. Conditions: formalin 1 h later, Mean ± SD, n=10. From the text: Rat formalin induced pain model is used to test in vivo analgesic effect of hydrochloride of compound III-10.
Rat formalin induced pain model is established by Dubuisson and Dennis in 1977. It can simulate some characteristics of human pains after damages, and its persistent tension pain is similar to common clinical chronic pains. Its experimental results have excellent repeatability, and it is considered to be universally accepted pain model which is more reliable than short-term mechanical or thermal stimulation models. It has been generally used in investigation and determination of pain mechanism, pain physiology and pharmacology, screening of the analgesic effects of drugs and evaluation of analgesic drugs.
Test compounds are prepared to relevant doses with 0.5% CMC-Na before use.
Formaldehyde solution: batch number HN20041109, HuaDong reagent industrial company. In experiment, it is diluted to 5% formaldehyde solution with 0.9% sodium chloride injection.
90 SD rats of weight (240-350 g), half female and half male, are fed for I week to adapt the environment, with 5 in each cage during feeding, the rats are fed under standard condition during experiments with free access to water and food.
90 SD rats of weight 240-350 g are randomly divided into 9 groups which are negative control group, model group, gabapentin group, high, median and low dosage group of each compound respectively, with 10 rats in each group, half female and half male. Relevant test compounds are given by intragastric administration, and 5% formalin (50 ul) is subcutaneously injected at the left rear foot in 1 h to model, formation of pichu indicates a successful modeling. 0.5% (weight percentage) CMC-Na is given by intragastric administration in negative control group, and normal saline (50 ul) is subcutaneously injected at the bottom of right rear foot in 1 h. After modeling, the leg-raising times in 1-2 minutes and 5-6 minutes are observed. The time period 10-60 minutes are divided into 5 minutes intervals, and the leg-raising times of the first minute of each interval (10-11, 15-16, 20-21, 25-26, 30-31, 35-36, 40-41, 45-46, 50-51, 55-56, 60-61) are observed.
Measuring index is expressed as mean±standard deviation (Mean±SD), comparison is analyzed with One-way ANOVA.

In another data set the target is T2, 5-HT1A receptor (Rattus norvegicus, UniProt P19327).
T2 construct: The supernatant is discarded and the precipitate (membrane receptor) is stocked; from tissue; host or cells: SD rat cerebral cortex membranes
T2 sequence (P19327 1-422): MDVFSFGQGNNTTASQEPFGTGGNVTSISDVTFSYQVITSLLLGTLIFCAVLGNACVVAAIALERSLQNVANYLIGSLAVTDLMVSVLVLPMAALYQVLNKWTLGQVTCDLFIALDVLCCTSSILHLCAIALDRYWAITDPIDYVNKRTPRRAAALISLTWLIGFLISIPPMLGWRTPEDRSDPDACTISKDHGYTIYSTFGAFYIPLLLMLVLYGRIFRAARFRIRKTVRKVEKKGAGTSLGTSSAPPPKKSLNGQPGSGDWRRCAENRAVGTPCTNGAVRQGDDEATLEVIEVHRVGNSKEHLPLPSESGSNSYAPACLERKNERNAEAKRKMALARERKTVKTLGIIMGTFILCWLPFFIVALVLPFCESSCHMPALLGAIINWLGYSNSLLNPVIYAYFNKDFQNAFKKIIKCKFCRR
Kind of data set: In vitro competitive binding test to 5-HT1A receptor ([3H]-8-OH-DPAT, rat cerebral cortex membranes). Conditions: 10 μmol/L compound; hydrochloride salts; rat cerebral cortex membrane; unit (I %); read-out: 5-HT1A affinity [3H]-8-OH-DPAT (inhibition rate of radioligand binding). How it is done: as §1, §2
Preparation of 5-HT1A buffer solution: Tris-HCl buffer solution (0.05M, 1000 ml) is added with certain amount of ascorbic acid, pargyline and CaCl2, to give final concentrations of 0.1%(ascorbic acid), 10 um (pargyline) and 4 mM (CaCl2) separately.
as §3, §4, §5, §6, §7, §8, §9, §10, §11, §12, §13

The structures appear in SMILES notation.

hSERT, sequence (P31645 whole entry): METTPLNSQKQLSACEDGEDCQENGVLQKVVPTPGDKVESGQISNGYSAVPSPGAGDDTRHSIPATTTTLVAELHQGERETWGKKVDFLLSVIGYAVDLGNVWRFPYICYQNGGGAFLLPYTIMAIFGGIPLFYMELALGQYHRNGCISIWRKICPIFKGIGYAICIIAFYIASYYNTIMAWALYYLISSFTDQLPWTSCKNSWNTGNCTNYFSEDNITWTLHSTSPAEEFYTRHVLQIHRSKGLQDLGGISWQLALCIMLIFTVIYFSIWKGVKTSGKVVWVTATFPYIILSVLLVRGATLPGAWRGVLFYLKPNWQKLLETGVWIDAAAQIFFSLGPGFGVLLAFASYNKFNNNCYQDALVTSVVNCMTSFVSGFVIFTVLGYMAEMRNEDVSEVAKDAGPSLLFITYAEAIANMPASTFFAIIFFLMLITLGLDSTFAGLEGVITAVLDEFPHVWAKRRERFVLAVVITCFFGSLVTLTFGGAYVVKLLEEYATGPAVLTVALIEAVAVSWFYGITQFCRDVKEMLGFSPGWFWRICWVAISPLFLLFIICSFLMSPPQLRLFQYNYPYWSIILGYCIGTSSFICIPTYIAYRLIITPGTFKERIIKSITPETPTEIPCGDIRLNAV
T1 sequence (P14842 whole entry): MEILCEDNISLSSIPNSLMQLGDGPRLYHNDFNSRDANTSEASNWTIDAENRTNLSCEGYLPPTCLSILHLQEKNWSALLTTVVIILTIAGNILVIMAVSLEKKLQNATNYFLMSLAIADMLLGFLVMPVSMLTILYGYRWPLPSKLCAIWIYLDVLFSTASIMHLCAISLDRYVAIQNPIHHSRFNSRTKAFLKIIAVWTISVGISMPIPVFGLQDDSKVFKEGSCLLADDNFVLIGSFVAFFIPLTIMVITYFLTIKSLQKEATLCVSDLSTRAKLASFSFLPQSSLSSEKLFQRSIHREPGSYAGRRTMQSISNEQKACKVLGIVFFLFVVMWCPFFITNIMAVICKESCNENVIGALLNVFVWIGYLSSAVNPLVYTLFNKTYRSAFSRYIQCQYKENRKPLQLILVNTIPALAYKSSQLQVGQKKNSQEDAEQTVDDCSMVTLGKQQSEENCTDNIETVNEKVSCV
Description for hSERT: Positive control compound: fluoxetine.
Sample treatment: about 1 mg of compound is weighted and added with relative amount of DMSO to prepare 10^−2M stock solution. Before use, the stock solution is diluted with HBSS buffer to relative concentrations. Each sample is dissolved in DMSO completely. The dilution is clear and without obvious cloudy and formation of precipitate after adding with buffer.
(1) Cells which can stably express hSERT are seeded into 24-well plates respectively.
(2) Experiments are started when the cell confluence reaches 80-90%.
(3) Liquids in the plates are discarded, the plates are washed with PBS twice at room temperature.
(5) Plates are incubated at 37° C. for 10 min after slight oscillation.
(6) Then 20 μl radioisotope is added (cpm: about 20000).
(7) Plates are incubated at 37° C. for 5 min after slight oscillation.
(8) Liquids in the plates are discarded, the plates are washed with ice-cold PBS twice, all the liquids in the plates are removed away.
(9) NaOH (2M, 100 μl) is added into each well to lyse the cells. All the lysates are combined and put on GF/C glass fiber filter paper.
(10) The filter papers are dried and put in 0.5 ml centrifuge tube, 500 μl lipid soluble scintillation liquid are added. Radioactivity is determined by MicroBeta liquid scintillation counter. Each concentration is tested intriplicate, and tests are carried out independently twice.
Test concentration is 10 μmol/L. The positive drug provided is set as control (10 μmol/L) in each experiment. The experimental processes are the same as the above process.

As usually defined, the IC50 is the concentration that inhibits the measured activity by half. A lower IC50 goes with greater potency. As usually defined, the inhibition is the change of the read-out against control, counted positive when it falls. Usually LD50 stands for the dose at which mortality reaches 50%. `CN(CCCN1CCN(c2cccc(Cl)c2)CC1)c1cccc(C#N)c1` [III-10, 3-((3-(4-(3-chlorophenyl)piperazin-1-yl)propyl)methylamino)benzonitrile] showed an IC50 against hSERT of 138 ± 35 nM. The “inhibition effect to 5-HT reuptake compared with fluoxetine” value on hSERT is reported as “more potent than that of fluoxetine”. In addition, the figures for the inhibition at 10 µM on hSERT, on 5-HT2A receptor and on 5-HT1A receptor were 94.3%, 145% and 109%, respectively. In data set [1], the 50% lethal dose (LD50) worked out at 1500 mg/kg. The “Ames test (colony reverse mutations)” value in data set [2] is listed as “negative”. The results for the “phase I times (leg-raising times)” value in data set [3] (40 mg/kg intragastric) and in data set [3] (160 mg/kg intragastric) were 21.23 ± 11.24 time and 21.90 ± 15.48 time, respectively.

At hSERT, `CN(CCCN1CCN(c2cccc(C(F)(F)F)c2)CC1)c1cccc(C#N)c1` [III-8, 3-(methyl(3-(4-(3-trifluoromethylphenyl)piperazin-1-yl)propyl)amino)benzonitrile] registered a concentration for half-maximal inhibition (IC50) of 246 ± 94 nM. In addition, the “inhibition effect to 5-HT reuptake compared with fluoxetine” value on hSERT is on record as “comparable to that of fluoxetine”. Further, the values for the inhibition at 10 µM on hSERT, on 5-HT2A receptor and on 5-HT1A receptor were 98.3%, 111% and 108%, respectively. Further, in data set [1], the 50% lethal dose (LD50) was 1800 mg/kg. The “Ames test (colony reverse mutations)” value in data set [2] is on record as “negative”.
